Data as given in PubChem BioAssay AID1963431 (Molecular Pharmacology Branch, DTP, NCI, 2024).
Values joined by “and” are separate entries in the source; they are usually repeats but may differ in a detail not shown here. Identical values can stand only once.

Tested on: Rh18 complex spheroid viability, percent test/control
Experiment: Anticancer human tumor Rh18 cell line growth inhibition [Asc];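 also: spheroids exposed to compound for 7 days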;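 as to viability, T/C: 100% = DMSO vehicle control wells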
Settings: for viability, T/C: stronger effect = lower value
Summary of the method: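 Tumor cells were grown as complex spheroids with human endothelial cells (HUVEC) and human mesenchymal stem cells as stroma. Agents were tested alone and in combination, in half-log steps down from the clinical Cmax, or from 10 microM where Cmax was unknown.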

[1] = curve of first compound, second compound 0.1 µM
[2] = curve of first compound, second compound 0.316 µM
[3] = curve of first compound, second compound 1 µM
[4] = curve of first compound, second compound 3.16 µM
[5] = curve of first compound, second compound 10 µM
[6] = second compound 0.1 µM, first compound 0.0316 µM
[7] = second compound 0.1 µM, first compound 0.1 µM
[8] = second compound 0.1 µM, first compound 0.316 µM
[9] = second compound 0.1 µM, first compound 1 µM
[10] = second compound 0.1 µM, first compound 3.16 µM
[11] = second compound 0.1 µM, first compound 10 µM
[12] = second compound 0.316 µM, first compound 0.0316 µM
[13] = second compound 0.316 µM, first compound 0.1 µM
[14] = second compound 0.316 µM, first compound 0.316 µM
[15] = second compound 0.316 µM, first compound 1 µM
[16] = second compound 0.316 µM, first compound 3.16 µM
[17] = second compound 0.316 µM, first compound 10 µM
[18] = second compound 1 µM, first compound 0.0316 µM
[19] = second compound 1 µM, first compound 0.1 µM
[20] = second compound 1 µM, first compound 0.316 µM
[21] = second compound 1 µM, first compound 1 µM
[22] = second compound 1 µM, first compound 3.16 µM
[23] = second compound 1 µM, first compound 10 µM
[24] = second compound 3.16 µM, first compound 0.0316 µM
[25] = second compound 3.16 µM, first compound 0.1 µM
[26] = second compound 3.16 µM, first compound 0.316 µM
[27] = second compound 3.16 µM, first compound 1 µM
[28] = second compound 3.16 µM, first compound 3.16 µM
[29] = second compound 3.16 µM, first compound 10 µM
[30] = second compound 10 µM, first compound 0.0316 µM
[31] = second compound 10 µM, first compound 0.1 µM
[32] = second compound 10 µM, first compound 0.316 µM
[33] = second compound 10 µM, first compound 1 µM
[34] = second compound 10 µM, first compound 3.16 µM
[35] = second compound 10 µM, first compound 10 µM
[36] = second compound 0.1 µM, first compound 0.00316 µM
[37] = second compound 0.1 µM, first compound 0.01 µM
[38] = second compound 0.316 µM, first compound 0.00316 µM
[39] = second compound 0.316 µM, first compound 0.01 µM
[40] = second compound 1 µM, first compound 0.00316 µM
[41] = second compound 1 µM, first compound 0.01 µM
[42] = second compound 3.16 µM, first compound 0.00316 µM
[43] = second compound 3.16 µM, first compound 0.01 µM
[44] = second compound 10 µM, first compound 0.00316 µM
[45] = second compound 10 µM, first compound 0.01 µM

| SMILES | IC50 [1] [nM] | IC50 [2] [nM] | IC50 [3] [nM] | IC50 [4] [nM] | IC50 [5] [nM] | viability, T/C [6] [%] | viability, T/C [7] [%] | viability, T/C [8] [%] | viability, T/C [9] [%] | viability, T/C [12] [%] | viability, T/C [13] [%] | viability, T/C [14] [%] | viability, T/C [15] [%] | viability, T/C [18] [%] | viability, T/C [19] [%] | viability, T/C [20] [%] | viability, T/C [21] [%] | viability, T/C [24] [%] | viability, T/C [25] [%] | viability, T/C [26] [%] | other results |
| --- | --- | --- | --- | --- | --- | --- | --- | --- | --- | --- | --- | --- | --- | --- | --- | --- | --- | --- | --- | --- | --- |
| C#Cc1c(F)ccc2cc(O)cc(-c3ncc4c(N5CC6CCC(C5)N6)nc(OCC56CCCN5CC(F)C6)nc4c3F)c12 (configuration not stated) + Cc1c(S(C)(=O)=O)c(-c2cc(F)cc(N3CCN(c4ccc(NS(=O)(=O)c5ccc(NC(CCN6CCC(C(=O)OCCCP(=O)(O)O)CC6)CSc6ccccc6)c(S(=O)(=O)C(F)(F)F)c5)cc4)CC3)c2)c(-c2ccc(Cl)cc2)n1C(C)C | < 31.6 | < 31.6 | < 31.6 | < 31.6 | < 31.6 | 14.1 | 10.3 | 12.1 | 13 | 11 | 10.6 | 10.8 | 8.98 | 8.64 | 7.73 | 8.18 | 9.23 | 6.12 | 6.59 | 5.52 | viability, T/C [10]: 15.7%; viability, T/C [11]: 15.8%; viability, T/C [16]: 10.4%; viability, T/C [17]: 12.9%; viability, T/C [22]: 8.77%; viability, T/C [23]: 8.2%; viability, T/C [27]: 4.57%; viability, T/C [28]: 5.64%; viability, T/C [29]: 6.94%; viability, T/C [30]: 5.81%; viability, T/C [31]: 5.32%; viability, T/C [32]: 2.97%; viability, T/C [33]: 3.66%; viability, T/C [34]: 2.62%; viability, T/C [35]: 4.15% |
| O=C(c1ccc(F)c(F)c1Nc1ccc(I)cc1F)N1CC(O)([C@@H]2CCCCN2)C1 + Cc1c(S(C)(=O)=O)c(-c2cc(F)cc(N3CCN(c4ccc(NS(=O)(=O)c5ccc(NC(CCN6CCC(C(=O)OCCCP(=O)(O)O)CC6)CSc6ccccc6)c(S(=O)(=O)C(F)(F)F)c5)cc4)CC3)c2)c(-c2ccc(Cl)cc2)n1C(C)C | < 3.16 | < 3.16 | < 3.16 | < 3.16 | < 3.16 | 17.2 | 11 | 6.6 | 1.12 | 11 | 8.03 | 4.04 | 0.96 | 6.89 | 7.25 | 3.29 | 0.52 | 7.81 | 5.28 | 1.59 | viability, T/C [36]: 14.8%; viability, T/C [37]: 13.6%; viability, T/C [38]: 9.21%; viability, T/C [39]: 11.2%; viability, T/C [40]: 8.77%; viability, T/C [41]: 14.6%; viability, T/C [42]: 7.36%; viability, T/C [43]: 7.93%; viability, T/C [27]: 0.38%; viability, T/C [44]: 5.3%; viability, T/C [45]: 4.85%; viability, T/C [30]: 4.39%; viability, T/C [31]: 2.53%; viability, T/C [32]: 1.08%; viability, T/C [33]: 0.6% |
| COc1c(OCCCN2CCOCC2)ccc2c3n(c(=NC(=O)c4cnc(N)nc4)nc12)CCN3 + Cc1c(S(C)(=O)=O)c(-c2cc(F)cc(N3CCN(c4ccc(NS(=O)(=O)c5ccc(NC(CCN6CCC(C(=O)OCCCP(=O)(O)O)CC6)CSc6ccccc6)c(S(=O)(=O)C(F)(F)F)c5)cc4)CC3)c2)c(-c2ccc(Cl)cc2)n1C(C)C | < 3.16 | < 3.16 | < 3.16 | < 3.16 | < 3.16 | 5.96 | 2.81 | 0.62 | 0.45 | 4.97 | 1.98 | 0.56 | 0.49 | 4.68 | 1.06 | 0.44 | 0.48 | 3.11 | 0.45 | 0.35 | viability, T/C [36]: 17.1%; viability, T/C [37]: 9.25%; viability, T/C [38]: 7.85%; viability, T/C [39]: 8.34%; viability, T/C [40]: 8.6%; viability, T/C [41]: 6.08%; viability, T/C [42]: 5.39%; viability, T/C [43]: 5.31%; viability, T/C [27]: 0.46%; viability, T/C [44]: 3.54%; viability, T/C [45]: 5%; viability, T/C [30]: 2.62%; viability, T/C [31]: 0.51%; viability, T/C [32]: 0.53%; viability, T/C [33]: 0.49% |
| O=C(c1cc(Cc2n[nH]c(=O)c3ccccc23)ccc1F)N1CCN(C(=O)C2CC2)CC1 + Cc1c(S(C)(=O)=O)c(-c2cc(F)cc(N3CCN(c4ccc(NS(=O)(=O)c5ccc(NC(CCN6CCC(C(=O)OCCCP(=O)(O)O)CC6)CSc6ccccc6)c(S(=O)(=O)C(F)(F)F)c5)cc4)CC3)c2)c(-c2ccc(Cl)cc2)n1C(C)C | < 31.6 | < 31.6 | < 31.6 | < 31.6 | < 31.6 | 14.8 | 14.2 | 14.6 | 17.6 | 9.83 | 9.85 | 10.5 | 10.7 | 8.79 | 10.4 | 9.85 | 8.8 | 6.37 | 7.47 | 8.14 | viability, T/C [10]: 18.5%; viability, T/C [11]: 13.5%; viability, T/C [16]: 16.4%; viability, T/C [17]: 9.72%; viability, T/C [22]: 11%; viability, T/C [23]: 8.8%; viability, T/C [27]: 5.82%; viability, T/C [28]: 8%; viability, T/C [29]: 7.02%; viability, T/C [30]: 4.38%; viability, T/C [31]: 4.61%; viability, T/C [32]: 6.78%; viability, T/C [33]: 4.36%; viability, T/C [34]: 5.03%; viability, T/C [35]: 5.76% |
| O=C(c1cc(Cc2n[nH]c(=O)c3ccccc23)ccc1F)N1CCN(C(=O)C2CC2)CC1 |  |  |  |  |  |  |  |  |  |  |  |  |  |  |  |  |  |  |  |  | viability, T/C (compound 0.0316 µM): 108% and 86.4% and 91.5%; viability, T/C (compound 0.1 µM): 99.5% and 81.7% and 85.2%; viability, T/C (compound 0.316 µM): 59.4% and 79.7% and 82.2%; viability, T/C (compound 1 µM): 57.3% and 63.1% and 73.7%; viability, T/C (compound 3.16 µM): 44.9% and 53% and 35.5%; viability, T/C (compound 10 µM): 44.7% and 41.7% and 29.5%; IC50 (curve of compound): 919 nM and 3840 nM and 2050 nM |
